Assay results from ChEMBL document CHEMBL4308841, “Synthesis, in vitro antiproliferative activity, and kinase inhibitory effects of pyrazole-containing diarylureas and diarylamides” (Eur J Med Chem, 2018).

Key:
NCI-H23 [1] = assay: Growth inhibition of human NCI-H23 cells incubated for 48 hrs by sulforhodamine B assay; format: functional, cell-based; conditions: NCI-H23, 48 h
HCC 2998 [2] = assay: Growth inhibition of human HCC2998 cells incubated for 48 hrs by sulforhodamine B assay; format: functional, cell-based; conditions: HCC 2998, 48 h
HCT-15 = assay: Growth inhibition of human HCT15 cells incubated for 48 hrs by sulforhodamine B assay; format: functional, cell-based; conditions: HCT-15, 48 h
M14 = assay: Growth inhibition of human M14 cells incubated for 48 hrs by sulforhodamine B assay; format: functional, cell-based; conditions: M14, 48 h
SK-MEL-28 = assay: Growth inhibition of human SK-MEL-28 cells incubated for 48 hrs by sulforhodamine B assay; format: functional, cell-based; conditions: SK-MEL-28, 48 h
PC-3 [3] = assay: Growth inhibition of human PC3 cells incubated for 48 hrs by sulforhodamine B assay; format: functional, cell-based; conditions: PC-3, 48 h
HL-60(TB) [4] = assay: Growth inhibition of human HL-60(TB) cells assessed as cell growth at 0.01 uM incubated for 48 hrs by sulforhodamine B assay relative to control; format: functional; conditions: HL-60, 48 h, read-out: Activity
SR = assay: Growth inhibition of human SR cells assessed as cell growth at 0.01 uM incubated for 48 hrs by sulforhodamine B assay relative to control; format: functional; conditions: read-out: Activity
NCI-H460 = assay: Growth inhibition of human NCI-H460 cells assessed as cell growth at 0.01 uM incubated for 48 hrs by sulforhodamine B assay relative to control; format: functional; conditions: NCI-H460, 48 h, read-out: Activity
HCC 2998 [5] = assay: Growth inhibition of human HCC2998 cells assessed as cell growth at 0.01 uM incubated for 48 hrs by sulforhodamine B assay relative to control; format: functional; conditions: HCC 2998, 48 h, read-out: Activity
SF-295 = assay: Growth inhibition of human SF295 cells assessed as cell growth at 0.01 uM incubated for 48 hrs by sulforhodamine B assay relative to control; format: functional; conditions: SF-295, 48 h, read-out: Activity
SK-MEL-5 [6] = assay: Growth inhibition of human SK-MEL-5 cells assessed as cell growth at 0.01 uM incubated for 48 hrs by sulforhodamine B assay relative to control; format: functional; conditions: SK-MEL-5, 48 h, read-out: Activity
OVCAR-3 = assay: Growth inhibition of human OVCAR3 cells assessed as cell growth at 0.01 uM incubated for 48 hrs by sulforhodamine B assay relative to control; format: functional; conditions: OVCAR-3, 48 h, read-out: Activity
MDA-MB-468 [7] = assay: Growth inhibition of human MDA-MB-468 cells assessed as cell growth at 0.01 uM incubated for 48 hrs by sulforhodamine B assay relative to control; format: functional; conditions: MDA-MB-468, 48 h, read-out: Activity
SW-620 = assay: Growth inhibition of human SW620 cells assessed as cell growth at 0.1 uM incubated for 48 hrs by sulforhodamine B assay relative to control; format: functional; conditions: SW-620, 48 h, read-out: Activity
SF-268 = assay: Growth inhibition of human SF268 cells assessed as cell growth at 0.1 uM incubated for 48 hrs by sulforhodamine B assay relative to control; format: functional; conditions: SF-268, 48 h, read-out: Activity
SK-MEL-5 [8] = assay: Growth inhibition of human SK-MEL-5 cells assessed as cell growth at 0.1 uM incubated for 48 hrs by sulforhodamine B assay relative to control; format: functional; conditions: SK-MEL-5, 48 h, read-out: Activity
HL-60(TB) [9] = assay: Growth inhibition of human HL-60(TB) cells assessed as cell growth at 1 uM incubated for 48 hrs by sulforhodamine B assay relative to control; format: functional; conditions: HL-60, 48 h, read-out: Activity
HOP-62 = assay: Growth inhibition of human HOP62 cells assessed as cell growth at 1 uM incubated for 48 hrs by sulforhodamine B assay relative to control; format: functional; conditions: HOP-62, 48 h, read-out: Activity
NCI-H23 [10] = assay: Growth inhibition of human NCI-H23 cells assessed as cell growth at 1 uM incubated for 48 hrs by sulforhodamine B assay relative to control; format: functional; conditions: NCI-H23, 48 h, read-out: Activity
HT-29 = assay: Growth inhibition of human HT-29 cells assessed as cell growth at 1 uM incubated for 48 hrs by sulforhodamine B assay relative to control; format: functional; conditions: HT-29, 48 h, read-out: Activity
OVCAR-8 = assay: Growth inhibition of human OVCAR8 cells assessed as cell growth at 1 uM incubated for 48 hrs by sulforhodamine B assay relative to control; format: functional; conditions: OVCAR-8, 48 h, read-out: Activity
MOLT-4 = assay: Growth inhibition of human MOLT4 cells assessed as cell growth at 100 uM incubated for 48 hrs by sulforhodamine B assay relative to control; format: functional; conditions: MOLT-4, 48 h, read-out: Activity
HCT-116 = assay: Growth inhibition of human HCT116 cells assessed as cell growth at 100 uM incubated for 48 hrs by sulforhodamine B assay relative to control; format: functional; conditions: HCT-116, 48 h, read-out: Activity
SNB-19 = assay: Growth inhibition of human SNB19 cells assessed as cell growth at 100 uM incubated for 48 hrs by sulforhodamine B assay relative to control; format: functional; conditions: SNB-19, 48 h, read-out: Activity
PC-3 [11] = assay: Growth inhibition of human PC3 cells assessed as cell growth at 100 uM incubated for 48 hrs by sulforhodamine B assay relative to control; format: functional; conditions: PC-3, 48 h, read-out: Activity
T47D = assay: Growth inhibition of human T47D cells assessed as cell growth at 100 uM incubated for 48 hrs by sulforhodamine B assay relative to control; format: functional; conditions: read-out: Activity
MDA-MB-468 [12] = assay: Growth inhibition of human MDA-MB-468 cells assessed as cell growth at 100 uM incubated for 48 hrs by sulforhodamine B assay relative to control; format: functional; conditions: MDA-MB-468, 48 h, read-out: Activity
[13] = read-out: pLC50 (the source's name) (converted)
[14] = read-out: LC50 (the source's name)

Q: What does the source list for COc1cc(Cl)cc(-c2nn(-c3cccc(NC(=O)Nc4cc(C(F)(F)F)cc(C(F)(F)F)c4)c3)cc2-c2ccncc2)c1?
A: IC50 (NCI-H23 [1]): 0.33 µM; GI50 (NCI-H23 [1]; read-out: GI50): 0.328 µM; LC50 (NCI-H23 [1]; read-out: LC50): 0.05 µM; TGI (NCI-H23 [1]; read-out: TGI): 1.6 µM; GI50 (NCI-H23 [1]; read-out: pGI50 (converted)): 0.331 µM; LC50 (NCI-H23 [1]; read-out: pLC50 (converted)): 50.1 µM; TGI (NCI-H23 [1]; read-out: pTGI (converted)): 1.58 µM; IC50 (HCC 2998 [2]): 0.62 µM; GI50 (HCC 2998 [2]; read-out: GI50): 0.622 µM; TGI (HCC 2998 [2]; read-out: TGI): 4.95 µM; GI50 (HCC 2998 [2]; read-out: pGI50 (converted)): 0.617 µM; CC50 (HCC 2998 [2]; [13]): 42.7 µM; TGI (HCC 2998 [2]; read-out: pTGI (converted)): 5.01 µM; IC50 (HCT-15): 0.35 µM; GI50 (HCT-15; read-out: GI50): 0.352 µM; TGI (HCT-15; read-out: TGI): 2.25 µM; GI50 (HCT-15; read-out: pGI50 (converted)): 0.355 µM; CC50 (HCT-15; [13]): 74.1 µM; TGI (HCT-15; read-out: pTGI (converted)): 2.82 µM; IC50 (M14): 0.44 µM; GI50 (M14; read-out: GI50): 0.442 µM; CC50 (M14; [14]): 0.0939 µM; TGI (M14; read-out: TGI): 2.16 µM; GI50 (M14; read-out: pGI50 (converted)): 0.447 µM; CC50 (M14; [13]): 9.33 µM; TGI (M14; read-out: pTGI (converted)): 2.14 µM; IC50 (SK-MEL-28): 0.9 µM; GI50 (SK-MEL-28; read-out: GI50): 0.9 µM; TGI (SK-MEL-28; read-out: TGI): 4.93 µM; GI50 (SK-MEL-28; read-out: pGI50 (converted)): 0.891 µM; CC50 (SK-MEL-28; [13]): 69.2 µM; TGI (SK-MEL-28; read-out: pTGI (converted)): 4.9 µM; IC50 (PC-3 [3]): 0.3 µM; GI50 (PC-3 [3]; read-out: GI50): 0.297 µM; CC50 (PC-3 [3]; [14]): > 100 µM; TGI (PC-3 [3]; read-out: TGI): 1.63 µM; GI50 (PC-3 [3]; read-out: pGI50 (converted)): 0.295 µM; CC50 (PC-3 [3]; [13]): > 100 µM; TGI (PC-3 [3]; read-out: pTGI (converted)): 1.62 µM; growth at 0.01 µM (HL-60(TB) [4]): 92%; growth at 0.01 µM (SR): 101%; growth at 0.01 µM (NCI-H460): 101%; growth at 0.01 µM (HCC 2998 [5]): 95%; growth at 0.01 µM (SF-295): 95%; growth at 0.01 µM (SK-MEL-5 [6]): 100%; growth at 0.01 µM (OVCAR-3): 105%; growth at 0.01 µM (MDA-MB-468 [7]): 97%; growth at 0.1 µM (SW-620): 94%; growth at 0.1 µM (SF-268): 99%; growth at 0.1 µM (SK-MEL-5 [8]): 97%; growth at 1 µM (HL-60(TB) [9]): 14%; growth at 1 µM (HOP-62): 40%; growth at 1 µM (NCI-H23 [10]): 8%; growth at 1 µM (HT-29): 23%; growth at 1 µM (OVCAR-8): 12%; growth at 100 µM (MOLT-4): -34%; growth at 100 µM (HCT-116): -88%; growth at 100 µM (SNB-19): -42%; growth at 100 µM (PC-3 [11]): -44%; growth at 100 µM (T47D): -22%; growth at 100 µM (MDA-MB-468 [12]): -40%
